According to patent US20240076347A1, “METHODS FOR PREVENTING FUNGAL INFECTIONS” (Cidara Therapeutics, Inc., priority 2016, published 2024):
Several values for one entry are separate records, joined by “and”; a condition that tells them apart may be missing. Equal values may be shown once. Numbered stars: 1 amine (or outer) side, 2 acyl side, 3 side chain; on linkers, the order of the positions; unused ones are H or OH. Bridge positions count the residues as written; N and C are the ends. Square brackets hold non-standard residues; d marks the D form. Peptide text beside a SMILES is read from it. * marks the point of attachment. ξ: configuration not given here. Orn(4R-OH,5R-OCH2CH2NMe3+) = C[N+](C)(C)CCO[C@@H](N[*:3])[C@H](O)C[C@H](N[*:1])C(=O)[*:2]; hTyr(3S-OH,4S-OH,3'-OSO3H) = N[C@H](C(=O)O)[C@H](O)[C@@H](O)c1ccc(O)c(OS(=O)(=O)O)c1; pTerphenylCO(4''-OnC5H11) = CCCCCOc1ccc(-c2ccc(-c3ccc(C(=O)*)cc3)cc2)cc1; Orn(4R-OH,5R-OH) = O=C([C@H](C[C@@H](O)[C@@H](O)N[*:3])N[*:1])[*:2]; hTyr(3S-OH,4S-OH) = N[C@H](C(=O)O)[C@H](O)[C@@H](O)c1ccc(O)cc1; Pro(3S-OH,4S-Me) = C[C@H]1CN[C@H](C(=O)O)[C@H]1O; X2 = CCCCCOc1ccc(-c2cc(-c3ccc(C(=O)*)cc3)no2)cc1; Gln(3R-OH) = NC(=O)C[C@@H](O)[C@H](N)C(=O)O; X1 = C[C@H]1CN([*:1])C(C(=O)[*:2])C1O; Hyp = O=C(O)[C@@H]1C[C@@H](O)CN1; ξT = CC(O)C(N)C(=O)O

How the values were obtained:
Candida albicans SC5314 = test: Immunocompetent DBA/2 mouse model of disseminated candidiasis, treatment, kidney CFU; format: in vivo; conditions: 24 hr
Method: The efficacy of CD101 SC was studied in an immunocompetent DBA/2 mouse model of disseminated candidiasis. Mice (5/grp) were challenged with Candida albicans SC5314 (ATCC: MYA-2876, fluconazole-sensitive human clinical isolate shown to be pathogenic in mice) via IV injection (100 μL, 5.0 log CFU/mouse) and treated with CD101 SC (1, 3 or 10 mg/kg). Micafungin via IP administration was tested as a positive control at the same 3 doses. At 24 hours following challenge, kidneys were harvested and processed for CFU enumeration. All comparisons were made between the treatment and time-matched vehicle groups.

A. fumigatus AF293 = test: Pulmonary aspergillosis in neutropenic ICR mice (Examples 14, 15), prophylaxis, survival; format: in vivo, Aspergillus fumigatus
Method: Pulmonary aspergillosis: ICR mice (10/grp) were made neutropenic by cyclophosphamide on Day −4 (150 mg/kg), and CPM/cortisone on Day −1 (150/175 mg/kg). Intranasal infection with A. fumigatus AF293 (10^5 CFU/mouse) on Day 0. Prophylaxis CD101 as a single dose (IP; 5, 10, 20 mg/kg) or posaconazole (PO; 2 and 10 mg/kg) 1 day prior to infection. Survival monitored for 10 days.
Pulmonary aspergillosis: ICR mice (10/grp) were made neutropenic by cyclophosphamide on Day −4 (150 mg/kg), and cyclophosphamide/cortisone was given on Day −1 (150/175 mg/kg). Intranasal challenge with A. fumigatus AF293 (10^5 CFU/mouse) was initiated on Day 0 and prophylaxis with CD101 as a single dose (IP; 5, 10, 20 mg/kg) or posaconazole (PO; 2 and 10 mg/kg) was started 1 day prior to infection. Survival was monitored for 10 days.

[1] = tested on: Aspergillus fumigatus strain AF293; test: Murine model of pulmonary aspergillosis (Example 16), survival and lung burden; format: in vivo; conditions: for Mean Survival / Median Survival / survival time post infection, range / mice that survived to the end of the study: Day −1; for mice that survived to the end of the study: 6 mice per group, 10 days; for Group Geometric mean / Log10 Group Geometric mean / Log10 reduction from vehicle control: terminal lung burden
Method: Animal strain and housing. Mice used in these studies were supplied by Charles River (Margate UK) and were specific pathogen free. The strain of mice used was ICR (also known as CD1 Mice) which is a well characterized outbred murine strain. Male mice were 11-15 g on receipt and allowed to acclimatize for at least 7 days.
Immunosuppression. Mice were immunosuppressed on Day −4 with 150 mg/kg cyclophosphamide administered intraperitoneally (IP), and on Day −1 with 150 mg/kg cyclophosphamide IP and 175 mg/kg cortisone acetate administered subcutaneously (SC). To prevent bacterial infection due to the immunosuppression mice were given once daily 50 mg/kg ceftazidime.
Preparation of Organism and Infection. A. fumigatus strain AF293 inoculum was prepared from spore cultures grown on Sabouraud Dextrose agar (SAB) containing 50 μg/mL chloramphenicol (SABC) in vented tissue culture flasks. Following incubation for 7-10 days at 30° C., spore cultures were washed in sterile phosphate buffered saline (PBS) containing 0.05% Tween 80. Spore count was determined using a haemocytometer and spores were diluted in PBS to ˜6.9×10^6 CFU/mL. Inoculum concentration was confirmed by quantitative culture onto SABC agar.
Neutropenic mice lungs were infected with 0.04 mL (0.02 mL/nare) of ˜4.17×10^6 CFU/mL (˜1.67×10^5 CFU/mouse) of A. fumigatus AF293 by intranasal (IN) instillation under temporary 2.5% isoflurane induced anesthesia.
Preparation of Test Articles. Micafungin (Mycamine, Astellas) was provided as a 50 mg vial (Lot 02323002, expiry 08/2017) and was prepared as per manufacturer's instructions by adding 5 mL saline for injection (SFI) directly into the vial to make up a 10 mg/mL stock solution. This solution was then diluted further in SFI to a working concentration of 0.5 mg/mL. […] It was prepared fresh once and stored at 4° C. until required.
Posaconazole (Noxafil 40 mg/mL oral suspension, Merck Sharp & Dohme Limited) was provided as a 40 mg/mL oral suspension (Lot N00801, expiry 04/2019). This suspension was then diluted further in water for infection (WFI) to a working concentration of 0.2 and 1 mg/mL. The suspension was administered orally (PO) at 10 mL/kg for 2 and 10 mg/kg doses respectively, was prepared fresh once and stored at 4° C. until required.
Test article CD101 stock was prepared at 6 mg/mL in 10% DMSO/1% Tween 20 diluent. A clear non particulate solution was obtained following gentle mixing. […] All doses were administered IP at 10 mL/kg. The study doses were kept at 4° C. until required.
Treatment. For this study, treatments were initiated on Day 1 pre infection according to treatment groups outlined in Table 22. A total of 36 mice (6/treatment group) were used in the study.
Endpoints. The primary endpoint for this study was survival within agreed ethical limits (>20% weight loss, severe hypothermia <34° C., inability to reach food or drink, severe hunching). Mice were monitored by daily weight measurements with observations as frequently as clinical condition required.
Mice presenting with severe clinical deterioration were humanely euthanized using an overdose of pentobarbitone administered by IP injection following clinical assessment and the time of death was recorded. Animal carcasses were stored at −20° C. before quantitative assessment of burden.
Ten days post infection all surviving animals were weighed and had their clinical condition assessed prior to being euthanized. Final survival numbers were recorded and analysed as described below and carcasses frozen at −20° C. prior to further processing.
Lung burden. A secondary endpoint for the study was terminal lung tissue burden. Immediately following confirmation of death, carcasses were frozen at −20° C. prior to tissue dissection and processing. The frozen carcasses were thawed at room temperature, the lungs removed and placed into pre-weighed bead-beating tubes containing 2 mL of PBS and subjected to mechanical disruption. […]

CCCCCOc1ccc(-c2ccc(-c3ccc(C(=O)N[C@H]4C[C@@H](O)[C@@H](OCC[N+](C)(C)C)NC(=O)C5C(O)[C@@H](C)CN5C(=O)[C@H]([C@@H](C)O)NC(=O)[C@H]([C@H](O)[C@@H](O)c5ccc(O)cc5)NC(=O)[C@@H]5C[C@@H](O)CN5C(=O)C(C(C)O)NC4=O)cc3)cc2)cc1 (stereo partly drawn) [CD101] ({pTerphenylCO(4''-OnC5H11)}-[Orn(4R-OH,5R-OCH2CH2NMe3+)][ξT][Hyp][hTyr(3S-OH,4S-OH)]T[X1]; lactam 1-C)
animals completely cleared of CFU burden (Candida albicans SC5314; 1 mg/kg SC): 4 of 5 | kidney CFU (Candida albicans SC5314; 1, 3 and 10 mg/kg SC, vs vehicle): significant reduction in kidney CFU | kidney CFU (Candida albicans SC5314; 3 or 10 mg/kg SC): complete CFU clearance | survival (A. fumigatus AF293; 20 mg/kg IP one day prior to infection (human 400 mg AUC equivalent)): increase in survival relative to control | survival rate (A. fumigatus AF293; 20 mg/kg IP one day prior to infection, 10 days): 30% | survival rate (A. fumigatus AF293; single dose IP (5, 10, 20 mg/kg) one day prior to infection): dose-dependent increase in survival rate | Mean Survival ([1]; 20 mg/kg IP once): 130.4 h | Median Survival ([1]; 20 mg/kg IP once): 74.7 h | survival time post infection, range ([1]; 20 mg/kg IP once): 70 to 240 h | mice that survived to the end of the study ([1]; 20 mg/kg IP once): Two | Mean Survival ([1]; 60 mg/kg IP once): 122.7 h | Median Survival ([1]; 60 mg/kg IP once): 88.7 h | survival time post infection, range ([1]; 60 mg/kg IP once): 73-240 | mice that survived to the end of the study ([1]; 60 mg/kg IP once): A single mouse | survival vs vehicle (conclusion) ([1]; 20 and 60 mg/kg once one day pre-infection): slight increase in survival, which was statistically longer than the vehicle treatment | Group Geometric mean ([1]; 20 mg/kg IP Day −1): 4.37 × 10^3 CFU/g | Log10 Group Geometric mean ([1]; 20 mg/kg IP Day −1): 3.64 CFU/g | Log10 reduction from vehicle control ([1]; 20 mg/kg IP Day −1): 0.53 CFU/g | Group Geometric mean ([1]; 60 mg/kg IP Day −1): 1.38 × 10^4 CFU/g | Log10 Group Geometric mean ([1]; 60 mg/kg IP Day −1): 4.14 CFU/g | Log10 reduction from vehicle control ([1]; 60 mg/kg IP Day −1): 0.03 CFU/g

CCCCCOc1ccc(-c2cc(-c3ccc(C(=O)N[C@H]4C[C@@H](O)[C@@H](O)NC(=O)[C@@H]5[C@@H](O)[C@@H](C)CN5C(=O)[C@H]([C@H](O)CC(N)=O)NC(=O)[C@H]([C@H](O)[C@@H](O)c5ccc(O)c(OS(=O)(=O)O)c5)NC(=O)[C@@H]5C[C@@H](O)CN5C(=O)[C@H]([C@@H](C)O)NC4=O)cc3)no2)cc1 [Micafungin, micafungin, reference compound] (X2-[Orn(4R-OH,5R-OH)]T[Hyp][hTyr(3S-OH,4S-OH,3'-OSO3H)][Gln(3R-OH)][Pro(3S-OH,4S-Me)]; lactam 1-C)
kidney CFU (Candida albicans SC5314; 10 mg/kg IP only): complete clearance | kidney CFU (Candida albicans SC5314; 1, 3 and 10 mg/kg IP): good dose response in CFU reduction | survival rate (A. fumigatus AF293; 5 mg/kg (human-equivalent 100 mg)): no survivors | Mean Survival ([1]; 5 mg/kg IP once): 92 h and 92.0 h | Median Survival ([1]; 5 mg/kg IP once): 80 h and 80.0 h | survival time post infection, range ([1]; 5 mg/kg IP once): 71 to 162 h | survival vs vehicle (conclusion) ([1]; 5 mg/kg once one day pre-infection): did not show any improvement in survival | Group Geometric mean ([1]; 5 mg/kg IP Day −1): 6.61 × 10^3 CFU/g | Log10 Group Geometric mean ([1]; 5 mg/kg IP Day −1): 3.82 CFU/g | Log10 reduction from vehicle control ([1]; 5 mg/kg IP Day −1): 0.35 CFU/g
